Where two headings read alike, the source gives them in different places.
Experiment: Study .5: single dose study in healthy Japanese volunteers, pharmacokinetic parameters
Type: in vivo, human
Conditions: Study .5, fasted
Description: 5. Pharmacokinetic Parameters
The pharmacokinetic parameters of pharmaceutical compositions and pharmaceutical dosage forms are assessed in healthy volunteer and patient populations. In the studies shown below, the participants fasted on the day of sampling, unless as otherwise stated (see for example study .3). The active substance in the studies below is the compound (I.9), preferably in the crystalline form (I.9X), and the dose of active ingredient is indicated in mg.
For the quantification of plasma concentrations of the active ingredient, 2.7 mL of blood was collected and transferred into an EDTA (ethylendiaminetetraacetic acid)-anticoagulant blood drawing tube. The EDTA-anticoagulated blood samples were centrifuged immediately after collection. Centrifugation lasted for about 10 minutes (at about 2,000×gf to 4,000×gf) at 4-8° C. or within 30 minutes while stored on ice. Concentrations of active substance in EDTA human plasma samples were quantitated using a HPLC/MS/MS method. The assay method comprised a solid phase supported liquid-liquid extraction of human plasma coupled with HPLC/MS/MS determination of the extracted samples. The HPLC/MS/MS assay was validated for the range of 1.11 to 1110 nM in human plasma.
Study .5: Single dose study in a healthy volunteer population of N=48 (Japanese volunteers). Healthy volunteers were administered tablets as described in Example 11 (section Examples of formulations).
AUC0-inf:area under the concentration-time curve of the analyte in plasma over the time interval from 0 extrapolated to infinity.
Cmax: maximum concentration of the analyte in plasma.
Tmax: time from dosing to maximum concentration.

OC[C@H]1O[C@@H](c2ccc(Cl)c(Cc3ccc(O[C@H]4CCOC4)cc3)c2)[C@H](O)[C@@H](O)[C@@H]1O [Compound (I.9), 1-chloro-4-(β-D-glucopyranos-1-yl)-2-[4-((S)-tetrahydrofuran-3-yloxy)-benzyl]-benzene]
AUC0-inf Max (5 mg single dose): 1.31 µM·h | AUC0-inf Min (5 mg single dose): 1 µM·h | AUC0-inf,norm Max (5 mg single dose): 262 nmol·h/L/mg | AUC0-inf,norm Median (5 mg single dose): 230 nmol·h/L/mg | AUC0-inf,norm Min (5 mg single dose): 200 nmol·h/L/mg | AUC0-inf,norm gMean (5 mg single dose): 228 nmol·h/L/mg | Cmax,norm Max (5 mg single dose): 46 nmol/L/mg | Cmax,norm Median (5 mg single dose): 31 nmol/L/mg | Cmax,norm Min (5 mg single dose): 25 nmol/L/mg | Cmax,norm gMean (5 mg single dose): 32 nmol/L/mg | tmax Min (5 mg single dose): 0.750 h | Cmax (5 mg single dose, read-out: Cmax Max): 230 nM | Cmax (5 mg single dose, read-out: Cmax Min): 123 nM | AUC0-inf Max (10 mg single dose): 3.19 µM·h | AUC0-inf Min (10 mg single dose): 2.34 µM·h | AUC0-inf,norm Max (10 mg single dose): 319 nmol·h/L/mg | AUC0-inf,norm Median (10 mg single dose): 264 nmol·h/L/mg | AUC0-inf,norm Min (10 mg single dose): 234 nmol·h/L/mg | AUC0-inf,norm gMean (10 mg single dose): 266 nmol·h/L/mg | Cmax,norm Max (10 mg single dose): 45 nmol/L/mg | Cmax,norm Median (10 mg single dose): 40 nmol/L/mg | Cmax,norm Min (10 mg single dose): 24 nmol/L/mg | Cmax,norm gMean (10 mg single dose): 37 nmol/L/mg | tmax Max (10 mg single dose): 3.00 h | tmax Min (10 mg single dose): 1.00 h | Cmax (10 mg single dose, read-out: Cmax Max): 454 nM | Cmax (10 mg single dose, read-out: Cmax Min): 242 nM | AUC0-inf Max (25 mg single dose): 7.15 µM·h | AUC0-inf Min (25 mg single dose): 5.04 µM·h | AUC0-inf,norm Max (25 mg single dose): 286 nmol·h/L/mg | AUC0-inf,norm Median (25 mg single dose): 254 nmol·h/L/mg | AUC0-inf,norm Min (25 mg single dose): 202 nmol·h/L/mg | AUC0-inf,norm gMean (25 mg single dose): 245 nmol·h/L/mg | Cmax,norm Max (25 mg single dose): 32 nmol/L/mg | Cmax,norm Median (25 mg single dose): 26 nmol/L/mg | Cmax,norm Min (25 mg single dose): 24 nmol/L/mg | Cmax,norm gMean (25 mg single dose): 26 nmol/L/mg | tmax Max (25 mg single dose): 4.00 h | tmax Min (25 mg single dose): 1.00 h | Cmax (25 mg single dose, read-out: Cmax Max): 790 nM | Cmax (25 mg single dose, read-out: Cmax Min): 605 nM | AUC(0-inf) (human, plasma, oral, 5 mg, 5 mg single dose, read-out: AUC0-inf Mean): 1.14 µM·h | AUC(0-inf) (human, plasma, oral, 5 mg, 5 mg single dose, read-out: AUC0-inf Median): 1.15 µM·h | AUC(0-inf) (human, plasma, oral, 5 mg, 5 mg single dose, read-out: AUC0-inf gMean): 1.14 µM·h | Cmax (human, plasma, oral, 5 mg, 5 mg single dose, read-out: Cmax Mean): 166 nM | Cmax (human, plasma, oral, 5 mg, 5 mg single dose, read-out: Cmax Median): 153 nM | Cmax (human, plasma, oral, 5 mg, 5 mg single dose, read-out: Cmax gMean): 161 nM | Tmax (human, plasma, oral, 5 mg, 5 mg single dose, read-out: tmax Mean): 1.63 h | Tmax (human, plasma, oral, 5 mg, 5 mg single dose, read-out: tmax Median): 2 h | Tmax (human, plasma, oral, 5 mg, 5 mg single dose, read-out: tmax gMean): 1.51 h | AUC(0-inf) (human, plasma, oral, 10 mg, 10 mg single dose, read-out: AUC0-inf Mean): 2.67 µM·h | AUC(0-inf) (human, plasma, oral, 10 mg, 10 mg single dose, read-out: AUC0-inf Median): 2.64 µM·h | AUC(0-inf) (human, plasma, oral, 10 mg, 10 mg single dose, read-out: AUC0-inf gMean): 2.66 µM·h | Cmax (human, plasma, oral, 10 mg, 10 mg single dose, read-out: Cmax Mean): 379 nM | Cmax (human, plasma, oral, 10 mg, 10 mg single dose, read-out: Cmax Median): 398 nM | Cmax (human, plasma, oral, 10 mg, 10 mg single dose, read-out: Cmax gMean): 372 nM | Tmax (human, plasma, oral, 10 mg, 10 mg single dose, read-out: tmax Mean): 1.67 h | Tmax (human, plasma, oral, 10 mg, 10 mg single dose, read-out: tmax Median): 1.5 h | Tmax (human, plasma, oral, 10 mg, 10 mg single dose, read-out: tmax gMean): 1.54 h | AUC(0-inf) (human, plasma, oral, 25 mg, 25 mg single dose, read-out: AUC0-inf Mean): 6.18 µM·h | AUC(0-inf) (human, plasma, oral, 25 mg, 25 mg single dose, read-out: AUC0-inf Median): 6.34 µM·h | AUC(0-inf) (human, plasma, oral, 25 mg, 25 mg single dose, read-out: AUC0-inf gMean): 6.13 µM·h | Cmax (human, plasma, oral, 25 mg, 25 mg single dose, read-out: Cmax Mean): 661 nM | Cmax (human, plasma, oral, 25 mg, 25 mg single dose, read-out: Cmax Median): 643 nM | Cmax (human, plasma, oral, 25 mg, 25 mg single dose, read-out: Cmax gMean): 658 nM | Tmax (human, plasma, oral, 25 mg, 25 mg single dose, read-out: tmax Mean): 2.33 h | Tmax (human, plasma, oral, 25 mg, 25 mg single dose, read-out: tmax Median): 2 h | Tmax (human, plasma, oral, 25 mg, 25 mg single dose, read-out: tmax gMean): 2.14 h

Source: patent US20180289678A1, “PHARMACEUTICAL COMPOSITION, PHARMACEUTICAL DOSAGE FORM, PROCESS FOR THEIR PREPARATION, METHODS FOR TREATING AND USES THEREOF” (Boehringer Ingelheim International GmbH, priority 2009, published 2018)
